Measurements reported in patent US4416891A, “Ester of 6-[(hexahydro-1H-azepin-1-yl)methyleneamino]penicillanic acid, and its use as antibacterial agent” (priority 1981, dated 1983).
Where a name gives a salt, the structure may show the parent alone. Read-outs that look alike come from different tables or passages of the source.

How the values were obtained:
[1] = Stability in an artificial gastric juice (bioautography); format: in vitro ADME; details: pH about 1.2, 37° C.
Description: Stability in an artificial gastric juice
(5-methyl-2-oxo-1,3-dioxolen-4-yl)methyl 6-[(hexahydro-1H-azepin-1-yl)methleneamino]penicillanate hydrochloride monohydrate [compound (I).HCl.H2 O]
(§1) (b) Experimental procedure
A solution of 2 mg of compound (I).HCl.H2 O in 0.2 ml of dimethyl sulfoxide was added to 3.8 ml of the artificial gastric juice described in The Pharmacopoeia of Japan, 10th edition (having a pH of about 1.2 and prepared by adding 24.0 ml of 10% HCl to 2.0 g of sodium chloride and adding water to adjust the total amount to 1000 ml). The solution was maintained at 37° C., and bioautographed as shown below after the lapse of 10 minutes, 30 minutes, and 50 minutes, respectively.
(i) The test solution was spotted on a cellulose plate [Cellulose F (Art 5718 supplied by Merck & Co.)] for thin-layer chromatography, and developed with the upper layer of a mixture of n-butanol, ethanol and water in a ratio of 4:1:5. The plate was dried in the air, and a 10% aqueous solution of mouse serum was sprayed onto the plate. […]
(iv) After the cultivation, the position (Rf value) of an inhibitory zone on the plate against E. coli NIHJ was determined. From this Rf value and Rf values of compound (I).HCl.H2 O and Mecillinam (X) separately determined under the same conditions as in (i) to (iii) above, the compound in the test solution was identified. […]

[2] = Stability in an artificial intestinal juice (bioautography); format: in vitro ADME; details: pH about 6.8, 37° C.
Description: Stability in an artificial intestinal juice
as §1
A test solution was prepared in the same way as in Test Example 1, (b), (1) except that the artificial intestinal juice described in The Pharmacopoeia of Japan, 10th edition (having a pH of about 6.8 and prepared by adding water to 250 ml of a 0.2 M aqueous solution of potassium dihydrogen phosphate and 118 ml of a 0.2 N aqueous solution of sodium hydroxide to form a solution having a total volume of 1000 ml) was used instead of the artificial gastric juice.
Performed in the same way as in Test Example 1, (b), (2).

[3] = Stability in mouse serum (bioautography); format: in vitro ADME; details: 40% mouse serum, 37° C., pH 7.4 phosphate buffer
Description: as §1
4 ml of mouse serum was added to 5.6 ml of 0.1 M phosphate buffer (pH 7.4), and then a portion (0.4 ml) of a solution of 20 mg of compound (I).HCl.H2 O in 1 ml of dimethyl sulfoxide was added. The solution was kept at 37° C. for 10 minutes to form a test solution.
The test solution obtained in (1) above was subjected to the same operation as in Example 1, (b), (2).

Escherichia coli NIHJ = assay: Antibacterial activity in oral administration to mice (inhibitory zone of serum samples); format: in vivo; details: male ddY mice, dose corresponding to 50 mg/kg of Mecillinam, average of n=4, read-out: Diameter of the inhibitory zone
Description: Antibacterial activity in oral administration to mice
Compound (I).HCl.H2 O and Pivmecillinam.HCl.
as §1
Male ddY mice (6 weeks old, body weight 28±2 g) were used. They were caused to fast for 16 hours before the administration of the test compounds.
An aqueous solution (5 mg/ml) of each of the test compounds was prepared, and orally administered to mice (five per group) in a dose corresponding to 50 mg/kg of Mecillinam.
Blood samples were taken individually from five mice in each group at 30, 60 and 90 minutes after the administration of each compound. The blood samples were immediately centrifuged individually at 3,000 rpm for 15 minutes, and serum samples obtained (each in an amount of 0.2 ml) were combined to give 1 ml of serum for assaying.
(4) Measurement of antibacterial activity
0.2 ml of a suspension of Escherichia coli NIHJ as test organism was added to 5 ml of nutrient agar kept at about 48° C. to give an agar plate. The assaying serum prepared in (3) above was infiltrated into a paper disc (a thick type with a diameter of 8 mm, supplied by Toyo Filter Paper Co., Ltd.), and the paper disc was placed on the agar plate (n=4). It was maintained at 37° C. for 18 hours, and the diameter of the resulting inhibitory zone was measured with respect to each of the serum samples.
The diameter of the inhibitory zone (an average of n=4) measured with respect to each of the serum samples was as shown in Table 1.

[4] = Toxicity test: acute toxicity (LD50) in oral administration; details: mouse, in vivo, male ddY-strain mice, five per group
Description: The acute toxicity (LD50) of compound (I).HCl.H2 O and Pivmecillinam.HCl in oral administration was examined by using male ddY-strain mice (body weight 22 to 25 g; five per group).

[5] = system: Gram-negative bacteria, especially Escherichia coli and Klebsiella pneumoniae; details: compared with Gram-positive bacteria; cited from earlier work
[6] = cited from earlier work
[7] = oral, man, 400 mg; cited from earlier work
[8] = 0.5 h, blood letting time 30 min
[9] = in Mus musculus, blood letting time 90 min

SMILES | period of stability in the artificial gastric juice [1] | stability in the artificial intestinal juice [2] | transformation to Mecillinam (X) in mouse serum [3] | zone of inhibition at 50 mg/kg (Escherichia coli NIHJ; [8]) | zone of inhibition at 50 mg/kg (Escherichia coli NIHJ; 1 h, blood letting time 60 min) | zone of inhibition at 50 mg/kg (Escherichia coli NIHJ; [9]) | LD50 [4] | antibacterial spectrum [5] | absorbability or bioavailability in oral administration [6] | urinary excretion after the 6 hour period [7]
Cc1oc(=O)oc1COC(=O)[C@@H]1N2C(=O)[C@@H](N=CN3CCCCCC3)[C@H]2SC1(C)C [Compound (I).HCl.H2 O, (5-methyl-2-oxo-1,3-dioxolen-4-yl)methyl 6-[(hexahydro-1H-azepin-1-yl)methleneamino]penicillanate hydrochloride monohydrate] | more than 50 minutes | stable in the artificial intestinal juice | transformed to Mecillinam (X) in 40% mouse serum within ten minutes at 37 °C | 23.3 mm | 20 mm | 17.2 mm | 5210 mg/kg |  |  | 
CC1(C)S[C@@H]2[C@H](N=CN3CCCCCC3)C(=O)N2[C@H]1C(=O)O [Mecillinam (X), 6-[(hexahydro-1H-azepin-1yl)methyleneamino]penicillanic acid] |  |  |  |  |  |  |  | stronger activity against Gram-negative bacteria, especially Escherichia coli and Klebsiella pneumoniae, than against Gram-positive bacteria | low | 
CC(C)(C)C(=O)OCOC(=O)[C@@H]1N2C(=O)[C@@H](N=CN3CCCCCC3)[C@H]2SC1(C)C [Pivmecillinam (X')] |  |  |  |  |  |  |  |  |  | 45%
CC(C)(C)C(=O)OCOC(=O)[C@@H]1N2C(=O)[C@@H](N=CN3CCCCCC3)[C@H]2SC1(C)C [Pivmecillinam.HCl] |  |  |  | 23.2 mm | 20.8 mm | 18 mm | 3840 mg/kg |  |  | 
